Experimental data: patent US20140106387A1, “METHOD FOR CONTROLLING NAD(P)/NAD(P)H RATIO BY OXIDOREDUCTASE” (MD BIOALPHA CO., LTD., priority 2006, published 2014)

How the values were obtained:
[1] = liver and muscle histology (H&E, EM) in ob/ob mice; assay type: in vivo, mouse; details: 56 days
Protocol: The removed tissues were cut into a proper size, fixed in 10% formalin, washed with water, and embedded in paraffin to prepare blocks, according to a conventional method. The thus-prepared blocks were sectioned into a 4 μm thickness and subjected to hematoxylin and eosin (H&E) staining for observation of general changes.
For observation of cellular microstructures, the removed tissues were sliced into a size of 1 mm^3, pre-fixed in 2.5% glutaraldehyde (0.1M PBS, pH 7.4, 4° C.) for 2 to 4 hours, washed, and post-fixed in a 1% osmium tetroxide solution for 2 hours. Then, according to a conventional method, the tissues were dehydrated with serial concentrations of ethanol and the solvent was replaced with propylene oxide. The tissues were embedded in an epoxy resin mixture, and the embedded tissues were subjected to thermal polymerization to prepare blocks. The thus-prepared blocks were sectioned into a thickness of 0.5 to 1 μm using a ultramicrotome and stained with toludine blue. Observation sites were selected under a light microscope and the tissues were ultrasectioned to a thickness of 60 to 70 nm. The ultrasectioned specimens were subjected to dual staining of uranyl acetate and lead citrate and were observed under a transmission electron microscope (H-600, Hitachi, Japan) at an accelerating voltage of 75 kV.
In order to examine fat accumulation in the liver tissue, animals were laparotomized 56 days after administration of pyran-1,2-naphthoquinone, and H&E staining and EM examination were performed on the liver tissue.

[2] = tested on: mRNAs in liver, adipose and muscle tissues; assay: real-time quantitative PCR / microarray of gene expression in tissues of DIO mice; assay type: in vivo, mouse
Protocol: Animals were continuously fed high-fat diet pellets for 3 to 4 weeks, thereby establishing DIO mice. Mice were raised in a breeding room with a 12 h/12 h light/dark D) cycle. Animals were divided into three groups, i.e., a group with administration of physiological saline (n=3), a group with administration of a vehicle (n=5) and a group with administration of 50 mg/kg of a candidate compound (n=7). Samples were orally administered to animals every day. On Days 7, 28 and 56, each tissue was removed, frozen in liquid nitrogen, and stored at […] for short and long periods of time.
On Days 7, 28 and 56, liver, adipose and muscle tissues were isolated from two groups of diet-induced DIO mice and total RNAs were extracted using Trizol. cDNAs were synthesized using 1 μg of total RNAs, and polymerase used for PCR was prepared using M-MLV polymerase according to a method instructed by the manufacturer. Real-time quantitative PCR was carried out using the prepared cDNAs.
A cDNA microarray analysis was carried out using an affymetrix mouse genome 430A 2.0 array chip. Using trizol, about 13 μg of total RNA was extracted in a concentration of more than 1 μg/1 μl from liver, adipose and muscle tissues of DIO mice on Days 7, 28 and 56, followed by a microarray analysis. Functional classification was made using NetAffx which is available from the Affymetrix website.
Adipose, liver or muscle tissues were pooled from male mice treated with a vehicle or a candidate compound for 4 weeks and the pooled tissues were subjected to microarray analysis. Total RNA was prepared from the tissues homogenized with a Trizol reagent (Invitrogen, Carlsbad, Calif.). Probes for the microarray analysis were prepared from 10 μg of the total RNA, and hybridized to Mouse 430A GeneChips (Affymetrix, Santa Clara, Calif.). The hybridized array was scanned, and raw data was extracted using Microarray Analysis Suite 5.0 (Affymetrix). For PCR quantitation, 1 μg of total RNA was reversely transcribed into cDNA using Superscript II and oligo(dT) primers. The constructed cDNA was amplified with the LightCycler FastStart DNA Master SYBR Green I kit and LightCycler, according to the manufacturer's instruction (Roche Diagnostics, Indianapolis, Ind.). Expression data were normalized to β-actin expression.
In order to investigate anti-obesity effects of an NQO1 activator, the NQO1 activator was administered daily to DIO mice at a dose of 50 mg/kg via an oral route, and an attempt was made to confirm levels of mRNAs of acetyl CoA carboxylase (ACC) 1, ACC2, fatty acid synthase (FAS), lipoprotein lipase (LPL), and stearoyl-CoA desaturase 1 (SCD1), which participate in lipid metabolism in the hepatic and gonadal adipose tissues, by real-time quantitative PCR. These enzymes are very important for lipid metabolism; it is known that ACC catalyzes formation of malonyl CoA from acetyl CoA, FAS catalyzes formation of palmitate from malonyl CoA, and SCD1 catalyzes formation of monounsaturated fat, thus playing a critical role in formation of triacylglycerol, a major energy store. Therefore, these enzymes are closely correlated with obesity, diabetes, and lipid metabolism-related diseases. […] Therefore, from the results of such increased or decreased expression of genes for the above-mentioned enzymes, it can be inferred that NQO1 will be feasible as a therapeutic target for the treatment of metabolic diseases.
In order to investigate effects of βL on the expression of genes involved in glucose and fat metabolism in liver, skeletal muscle and white adipose tissue (WAT), experiments were caned out using gene expression microarray analysis and mouse A42 Affymetrix GeneChip.

cardiomyocytes = assay: mitochondrial oxygen consumption in cardiomyocytes; assay type: cell-based
From the text: FIG. 22 is a graph showing monitoring results of mitochondrial oxygen consumption using a Clark-type oxygen electrode;

MN9X cells = assay: intracellular ATP concentration in non-dopaminergic neuronal cells; assay type: cell-based; details: 5 μM
Protocol: Dopaminergic (MN9D) and non-dopaminergic (MN9X) neuronal cells were treated with 5 μM pyran-1,2-naphthoquinone and the ATP concentration was periodically measured.

[3] = mean body temperature after cold exposure; assay type: in vivo, mouse; details: ambient temperature of 4 for 12 hours
[4] = DIO mice, 50 mg/kg daily oral, liver and gonadal adipose tissues
[5] = gonadal adipose tissues, Days 7, 28 and 56, 50 mg/kg daily oral

## CC1(C)CCC2=C(O1)c1ccccc1C(=O)C2=O [βL, 2,2-Dimethyl-3,4-dihydro-2H-benzo[h]chromene-5,6-dione]
[1]
  EM examination on liver tissues: remarkably decreased fat vacuoles and glycogen stores
  EM examination on muscle tissue of animal limbs: recovery of normal mitochondrial morphology
  H&E staining on liver tissue: almost all fat vacuoles have disappeared
[2]; DIO mice, 50 mg/kg daily oral
  LPL mRNA level increase compared to control: approximately 2 fold
  increase in mRNA levels of PPAR gamma: two-fold
  mRNA of PPAR alpha: not changed
  mRNAs of AOX, AMPK alpha 1, AMPK alpha 2 and carnitine palmitoyltransferase 1: increased levels
[2]; DIO mice, 50 mg/kg daily oral, hepatic and gonadal adipose tissues
  expression levels of mRNAs of ACC1 and ACC2, FAS, LPL, and SCD1: remarkably decreased
[2]; [4]
  HK2 mRNA level: decreased
  mRNA levels of UCP1 & 2: significant increases
  mRNAs of GLUT2 and GLUT4: significant increases
  mRNAs of PGC1α, NRF1, mtTFA, COX4 and COX7: increased levels of mRNAs for all enzymes
[2]; adipose tissues, vs vehicle-treated mice
  expression of LPL, ATGL, PPARα, SIRT1, Glut2 and Glut4: higher
[2]; [5]
  transcripts of SIRT1, SIRT3 and SIRT6: significantly increased
  transcripts of SIRT2, SIRT5 and SIRT7: did not exhibit any noticeable difference
[2]; liver and muscle, βL-treated vs vehicle-treated mice
  expression of PGC-1α and NRF-1: significantly induced
[2]; muscle
  expression of COX4, COX7, AOX, UCP2 and UCP3: strongly upregulated
  expression of GLUT 2 and GLUT 4: induced
[2]; muscle and WAT
  expression of Sirt1 and Sirt3: induced
cardiomyocytes
  mitochondrial oxygen consumption: increased
MN9X cells
  intracellular ATP concentration: decreased
[3]
  mean body temperature after cold exposure: more resistant to the cold
